# “Also recorded” adds a separate entry of the source. Where two headings read alike, the source gives them in different places.
# What was measured:
# pyloric sphincter muscle = assay: Organ bath physiology: EFS-evoked NO-dependent NANC relaxation of ex vivo pylori; set-up: species or system mouse
# [1] = tested on: STZ-diabetic and NOD-diabetic mice; assay: Gastric emptying of phenol red-labeled liquid meal in diabetic mice; format: in vivo, mouse; details: for t½ for gastric emptying: 1 mg/kg intraperitoneal 20 minutes before; for gastric emptying (20% dextrose): NOD-diabetic and STZ-diabetic mice after 1 week of insulin treatment
# Protocol: Animals. Mice were allowed free access to food and water except when fasted, as indicated for experiments. Wild-type mice (C57BL/6) were purchased from The Jackson Laboratory (Bar Harbor, Me., USA). nNOS^−/− mice were obtained following targeted genomic deletion of nNOS (15) and have the genetic background of C57BL/6 mice (28). For STZ-induced diabetes, adult male mice (C57BL/6) were injected intraperitoneally with a single dose of STZ (200 mg/kg in 0.1 M sodium citrate) as described elsewhere (29), whereas control mice were injected with an equal volume of vehicle (sodium citrate). STZ-treated mice were used for experiments 8 weeks after STZ injection. […]; Boehringer Mannheim, Indianapolis, Ind., USA). The average serum glucose levels for wild-type animals and the STZ diabetic mice 8 weeks after injection were 99 mg/dL and 388 mg/dL, respectively (Table 1). Adult male nonobese diabetic (NOD/LtJ [NOD]) mice were obtained at 8-10 weeks of age (The Jackson Laboratory). Serum glucose levels were also monitored weekly with the Accu-Check monitor. NOD-prediabetic mice and NOD-diabetic mice had average serum glucose levels of 88 mg/dL and 232 mg/dL, respectively (Table 1). For the indicated experiments, NOD-prediabetic mice were sacrificed at 10 weeks of age after serum glucose levels were confirmed, whereas NOD-diabetic mice were sacrificed at 30-32 weeks of age after elevated serum glucose levels were confirmed.
# (§1) Insulin treatment was given using LinBit, a sustained-release insulin implant (0.1 U/d/implant; LinShin Canada Inc., Toronto, Ontario, Canada). After brief anesthesia with diethyl echer, the insulin implant was quickly immersed in Betadine solution (McKesson, San Francisco, Calif., USA) and implanted subcutaneously with a 12-gauge needle. Serum glucose levels were monitored, and insulin-treated animals were used for experiments after 12 hours or 1 week of insulin therapy, as indicated. The serum glucose levels after 1 week of insulin treatment are shown (Table 1), as are the serum glucose levels after 12 hours of insulin treatment (see FIG. 2b).
# As indicated, insulin-treated diabetic mice were treated with the nNOS inhibitor 7-nitroindazole (7-NI; Lancaster, Wyndham, N.H., USA) by two intraperitoneal injections (50 mg/kg) of a suspension in sesame oil (Sigma Chemical Co., St. Louis, Miss., USA) given 24 hours and 30 minutes before determination of gastric emptying. […] For all experiments, control animals were similarly injected with vehicle (either sesame oil or water).
# Gastric emptying. Gastric emptying of liquids was determined as described previously (30). For any experiments using diabetic mice, serum glucose levels of all animals were confirmed immediately before monitoring gastric emptying. Adult mice were sedated briefly (<30 seconds) with diethyl ether. Mice fully recovered from sedation in less than 1 minute. During brief sedation, oral-gastric intubation was accomplished with a 21-gauge needle fitted with a thin plastic catheter (8 cm in length). Then, 0.2 mL of 1 mg/mL phenol red-labeled 20% dextrose (or other solution, if indicated) was instilled into the stomach. Mice were placed in clean, empty cages until the time of sacrifice. At the indicated time (0-120 minutes), mice were rapidly sacrificed by cervical dislocation and the stomach was excised. The duodenum was ligated, followed by transverse resection of the lower esophagus, and the stomach was removed from the body cavity. Excised stomachs were homogenized with a polytron (Brinkmann, Westbury, N.Y., USA) homogenizer in 3 mL of 95% ethyl alcohol. After centrifugation (40,000 g for 20 minutes), an aliquot of the supernatant was used to determine phenol red content. Standard curve was constructed and found to be linear over the range of 1-20 microgram of phenol red. Phenol red content was monitored at 410 nm, at which a single peak of absorbance was observed when extracted with ethanol. […]
# nNOS [2] = assay: Western blot analysis of nNOS protein expression in intestinal tissues; format: in vivo, mouse; details: NOD-diabetic mice, insulin treatment (1 week)
# Protocol: as §1
# Western blot analysis. Mouse tissues were homogenized in ice-cold buffer containing 50 mM Tris (pH 7.4, 25° C.), 100 mM NaCl, 1 mM EGTA, and protease inhibitors (4 microgram/mL leupeptin, 2 microgram/mL antipain, 2 microgram/mL pepstatin, and 1 mM PMSF). After centrifugatin (1.5 minutes, 16,000 g), the supernatants were collected and protein content was determined (Coomassie protein assay; Pierce Chemical Co., Rockville, Ill., USA). Samples (50 microgram protein) were subjected to SDS-PAGE (4-12% gradient gel; Bis-tris NuPage; Novex, San Diego, Calif., USA) and then transferred to PVDF membranes (Immobilon-P; Millipore Corp., Bedford, Mass., USA). […]
# nNOS mRNA = assay: In situ hybridization of nNOS mRNA in pyloric myenteric neurons; format: in vivo, mouse; details: NOD-diabetic and STZ-diabetic mice, insulin treatment (1 week)
# Protocol: as §1
# In situ hybridization. In situ hybridization for nNOS was performed as described previously (31,32).
# nNOS [3] = assay: Immunohistochemistry of nNOS protein expression in pyloric myenteric neurons; format: in vivo, mouse; details: NOD-diabetic and STZ-diabetic mice, insulin treatment (1 week)
# Protocol: as §1
# Immunohistochemistry. For nondiabetic studies, wild-type animals or 10-week-old NOD-prediabetic animals were used. For diabetic studies, we used animals 8 weeks after STZ injection (STZ diabetic) or 30-week-old NOD mice (NOD-diabetic). Pylori or other tissues were dissected and immediately imbedded (Tissue-Tek OCT 4583; Sakura Finetek Inc., Torrence, Calif., USA) and placed in dry ice and allowed to freeze. Routine sections (10 micrometer) were cut using a cryostat (−19° C.; Leica Microm, Allendale, N.J., USA). For immunostaining, slides were fixed for 5 minutes in 4.0% paraformaldehyde, washed in PBS, and permeablized with 0.1% Triton X-100 in PBS. […]
# [4] = wild-type pylori precontracted with 0.1 micromolar SP, inhibitor 0.1 mM
compound,measurement,setting,value
retrodotoxin [TTX],EFS-evoked NANC relaxation,pyloric sphincter muscle,completely blocked
"O=[N+]([O-])c1cccc2cn[nH]c12 [Compound 7-NI, 7-nitroindazole]",NANC relaxation,"pyloric sphincter muscle; pylori of insulin-treated diabetic mice, in the presence of 0.1 mM 7-NI",completely blocked
same,EFS-evoked NANC relaxation,pyloric sphincter muscle; [4],blocked
same,gastric emptying at 30 minutes,"[1]; insulin-treated (1 week) STZ-diabetic and NOD-diabetic mice, 7-NI 50 mg/kg intraperitoneal, 24 hours and 30 minutes before",reverses the restoration of normal gastric emptying; also recorded: delays gastric emptying
"CCCc1nn(C)c2c(=O)[nH]c(-c3cc(S(=O)(=O)N4CCN(C)CC4)ccc3OCC)nc12 [sildenafil, 5-[2-ethoxy-5-(4-methylpiperazin-1-ylsulphonyl)phenyl]-1-methyl-3-n-propyl-1,6-dihydro-7H-pyrazolo[4,3d]pyrimidin-7-one]",effect on delayed gastric emptying,"[1]; STZ-diabetic and NOD-diabetic mice, sildenafil 1 mg/kg",reverses the delayed gastric emptying; also recorded: reveres delayed gastric emptying
same,t½ for gastric emptying,[1]; sildenafil-treated NOD-diabetic mice,36 min
same,t½ for gastric emptying,[1]; sildenafil-treated STZ-diabetic mice,30 min
"NC(=NCCC[C@H](N)C(=O)O)N[N+](=O)[O-] [L-NNA, N-nitro-[.-arginine]",EFS-evoked NANC relaxation,pyloric sphincter muscle; [4],blocked
insulin,EFS-evoked NANC relaxation,pyloric sphincter muscle; pylori of NOD-diabetic mice after insulin treatment (1 week),partially restores NANC relaxation
same,EFS-evoked NANC relaxation,pyloric sphincter muscle; pylori of STZ-diabetic mice after insulin treatment (1 week),restores NANC relaxation
same,nNOS protein expression (Western blot) in intestinal regions,nNOS [2],fully reversible
same,nNOS protein expression (Western blot) in intestinal regions,nNOS [2]; listed as Insulin,completely reverses the loss of nNOS protein
same,nNOS mRNA expression in pylori,nNOS mRNA,substantially restores
same,gastric emptying (20% dextrose),[1],restored to normal
same,gastric emptying (20% dextrose),[1]; listed as Insulin,reverses delayed gastric emptying
same,t½ of gastric emptying,"[1]; STZ-diabetic mice after insulin treatment for 12 hours (subcutaneous implant), sham STZ-diabetic 60, wild-type 36",54 min
same,nNOS protein expression in pyloric myenteric neurons,nNOS [3],reverse the loss of nNOS expression; also recorded: near normal levels
